According to patent EP4596561A1, “PHOSPHORUS-CONTAINING COMPOUND, PHARMACEUTICAL COMPOSITION AND USE THEREOF” (Suzhou Genhouse Bio Co., Ltd., priority 2022, dated 2024):
Read-outs that look alike come from different tables or passages of the source. Values belong to the compound of their own block, whether it stands above or below them.

Assays:
[1] = tested on: YAP-TEAD transcription complex; experiment: YAP-TEAD reporter gene assay (dual luciferase, stably transfected 293T cells); assay type: cell-based; settings: Homo sapiens, HEK-293T
Method: YAP-TEAD reporter gene The YAP-TEAD reporter gene assay was performed as follows. Firstly, the 8xGTIIC promoter sequence ([…] GTACTGTTGGTAAA) was constructed into a pGL4.20(luc2-Puro) plasmid, and the TK promoter ([…]) unrelated to the hippo pathway was constructed into a pGL4.78(hRlucCP/Hygro) plasmid, thereby constructing stably transfected 293T cells that can stably and continuously express the transcriptional activity of the YAP-TEAD transcription complex. After selection and identification of individual clones, the clones were grown and maintained in a DMEM medium containing 10% fetal bovine serum, penicillin-streptomycin solution, 1 µg/mL puromycin, and 150 µg/mL hygromycin. To perform reporter gene assays with the compounds to be tested, the well-growing cells described above were plated in a 384-well plate at a cell density of 3000 cells per well, with 90 µL per well. The periphery was sealed with an appropriate amount of PBS to prevent evaporation of water from the peripheral wells. Administration was performed on the next day after the cell plating. The test compounds were added at different concentration gradients, and three replicate wells were set for each concentration point. The compound concentration started at 5 µM and was diluted seven times with a 5-fold gradient. A corresponding negative control group treated with DMSO was also set up. After 24 h of drug treatment, the detection reagents were prepared first. The Dual-Lumi™ Firefly luciferase detection reagent and Dual-Lumi™ Renilla luciferase detection buffer were dissolved and brought to room temperature. […]. According to the amount of 100 µL of Dual-Lumi™ Renilla luciferase detection working solution required for the detection of each sample, an appropriate amount of Dual-Lumi™ Renilla luciferase detection working solution was prepared. […]. The cell culture plate was taken out and allowed to equilibrate at room temperature for 10 min (usually no more than 30 min). Then, 100 µL of Dual-Lumi™ Firefly luciferase detection reagent was added to each well of a 96-well plate (25 µL per well for the 384-well plate), and the mixture was mixed well. The mixture was then incubated at room temperature (about 25 °C) for 10 min to stabilize the luminescent signal, and then chemiluminescence was detected using a multimode microplate reader with a chemiluminescence detection function. Subsequently, the detection of Renilla luciferase began. Firstly, 100 µL of Dual-Lumi™ Renilla luciferase detection working solution was added to each well of a […] (25 µL per well for the 384-well plate), and the mixture was mixed well. The mixture was then incubated at room temperature (about 25 °C) for 10 min to stabilize the luminescent signal. Finally, chemiluminescence was detected using a multimode microplate reader with a chemiluminescence detection function. The obtained data were analyzed using GraphPad Prism 7.0 software. A sigmoidal dose-survival rate curve was plotted using a non-linear regression model, and the IC50 values were calculated.

[2] = tested on: NCI-H2452 (NF2 wide-type); experiment: Inhibition of cell proliferation (CellTiter-Lumi); assay type: cell-based; settings: Homo sapiens, 72 h + another 72 h treatment
Method: (§1) NCI-H2052 (NF2 mutant), NCI-H226 (NF2 mutant), NCI-H2452 (NF2 wide-type), NCI-H28 (NF2 wide-type), and MSTO-211H (NF2 wide-type) cells were cultured in RPMI 1640 complete media.
(§2) The normally growing cells described above were digested with a trypsin cell-digesting solution, centrifuged, counted, and then plated in a 96-well plate at a density of 1000 cells per well. Administration was performed 24 h after the cell plating. Inhibitors at different concentration gradients were added at 10 µL per well, and three replicate wells were set for each concentration point. The starting concentration was 20 µM and diluted 8 times with a 4-fold gradient. A corresponding negative control group treated with 0.1% DMSO was also set up. After 72 h of drug treatment, the cell culture plate to be tested was taken out of the incubator. The culture medium in the 96-well plate was pipetted, and 190 µL of fresh RPMI 1640 complete medium was added. Another administration was performed, and the cells were cultured for another 72 h. The 96-well plate was taken out and allowed to equilibrate at room temperature for 10 min. […] After shaking for two minutes, the mixture was reacted at room temperature for 10 min. Then, 150 µL of liquid was pipetted from the transparent 96-well plate and transferred to a white 96-well plate for chemiluminescence reading. The background value was subtracted from the value for each well to calculate the cell survival rate. Survival rate (%) = […]. Sample is the chemiluminescence of the drug-treated group, and Vehicle is the […] of the DMSO control group. A sigmoidal dose-survival rate curve was plotted using a non-linear regression model in the GraphPad Prism 7.0 software, and the IC50 values or GI50 values were calculated.

[3] = tested on: NCI-H28 (NF2 wide-type); experiment: Inhibition of cell proliferation (CellTiter-Lumi); assay type: cell-based; settings: Homo sapiens, 72 h + another 72 h treatment
Method: as §1, §2

[4] = Pharmacokinetic test in mice (low dose); assay type: in vivo, Balb/c mice; settings: mouse
Method: The compounds of the present disclosure were administered to Balb/c mice by single intravenous injection and oral gavage, and the plasma of the mice at each time point was collected. The concentration of the compounds to be tested in BALB/C plasma was detected using the LC-MS/MS analysis method, and pharmacokinetic analysis was performed.
The mixture was vortexed, shaken, and ultrasonicated. The remaining volume of 25% sulfobutylether-β-cyclodextrin (sterilized) was added to prepare the final concentration solution or suspension.
Intravenous injection formulations will be directly administered in animal experiments without filtration. The IV drug preparation vials were disinfected in an infrared sterilization cabinet one day in advance.
Intravenous injection: Administration was performed via the tail vein. After the needle was inserted, the syringe was slowly […].
Gavage: Gavage needle and syringe of an appropriate type were selected. The gavage needle was inserted from the root of the tongue into the esophagus until it reached near the cardia of the stomach, then the drug formulation was injected, and the gavage needle was withdrawn. When disposable plastic gavage needles were used, one needle was used for each group.
At each time point, 60 µL of whole blood was collected from the submandibular vein or tail vein (except for the IV group). The blood sample was added to a pre-cooled anticoagulant blood collection tube containing anticoagulant EDTA-K2 (1 µL, 15% EDTA-K2 solution), placed on wet ice, and centrifuged (3000 g, 4 °C, 10 min) within 1 h. The plasma was immediately collected after centrifugation, transferred to an EP tube, and stored at -90 °C to -60 °C.
Plasma concentration detection: A developed LC-MS/MS method was used to detect the compounds in plasma.
The plasma concentration-time data were analyzed using a non-compartmental model in the Phoenix® WinNonlin® (Version 8.2, Pharsight, Mountain View, CA).

[5] = in vivo; settings: mouse, plasma, po, 100 mg/kg
Method: After adding 5% DMSO, the mixture was vortexed. 15% HS15 was then added, and the mixture was vortexed again. Finally, a 10% aqueous cyclodextrin solution was added, and the resulting mixture was vortexed to prepare the final concentration solution or suspension.

[6] = Saturated solubility in FaSSIF solution; assay type: physicochemical; settings: room temperature, stirred overnight
Method: Efficacy Experimental Example 9: Test of Saturated Solubility of Samples in FaSSIF Solution
About 0.21 g of sodium hydroxide, about 2.24 g of sodium dihydrogen phosphate dihydrate, and 3.09 g of sodium chloride were weighed out and dissolved in 500 mL of water, and after dissolution, the pH was adjusted to 6.5 with 1 N sodium hydroxide or 1 N hydrochloric acid.
112 mg of FaSSIF solid was weighed out and placed in a 50 mL volumetric flask, and the buffer described above was added for dissolution. The resulting solution was diluted to volume, mixed well, and left to stand at room temperature for 2 h or more.
Test sample: About 1 mg of the test sample was taken, and 1 mL of FaSSIF solution was added. The mixture was stirred at room temperature overnight and centrifuged, and the supernatant was collected and injected for analysis.
Reference sample solution: About 1.5 mg of the test sample was precisely weighed out and placed in a 50 mL volumetric flask, and DMF was added for dissolution. The resulting solution was diluted to volume and mixed well.
The peak of the main component of the reference sample and the peak of the test sample with the same retention time were integrated, and the concentration thereof in the FaSSIF solution was calculated according to the external standard method.

[7] = 293T reporter cells, 24 h of drug treatment, read-out: IC50

Structure (SMILES): CP(C)(=O)c1cnc(Nc2ccc(Cl)cc2)c(-c2cn3c(n2)CCC3)c1 [Example 38]
IC50 ([1]; 24 h): 28.7 nM

Structure (SMILES): CP(C)(=O)c1cnc(Oc2ccc(C(F)(F)F)cc2)c(-c2cn3c(n2)CCC3)c1 [Example 9]
MRT ([4]; in vivo, mice, IV 2 mg/kg): 1.7 h | AUC(0-t) ([4]; in vivo, mice, IV 2 mg/kg, read-out: AUClast): 5.74 µM·h | clearance ([4]; in vivo, mice, IV 2 mg/kg, read-out: Cl (converted)): 13.3 mL/min/kg | half-life ([4]; in vivo, mice, IV 2 mg/kg, read-out: T1/2 (converted)): 1.4 h | MRT ([4]; in vivo, mice, PO 10 mg/kg): 3.2 h | bioavailability ([4]; in vivo, mice, PO 10 mg/kg vs IV 2 mg/kg, read-out: F%): 111% | AUC(0-t) ([4]; in vivo, mice, PO 10 mg/kg, read-out: AUClast): 30.5 µM·h | Cmax ([4]; in vivo, mice, PO 10 mg/kg, read-out: Cmax): 9.37 µM | half-life ([4]; in vivo, mice, PO 10 mg/kg, read-out: T1/2 (converted)): 1.9 h | IC50 ([1]; 24 h): 160 nM

Structure (SMILES): CC(C)NC(=O)c1ccc2c(Oc3ccc(C(F)(F)F)cc3)cccc2c1 [Comparative compound B1, reference compound]
bioavailability ([4]; Balb/c, in vivo): 81% | AUC(0-t) ([4]; Balb/c, in vivo, iv, 2 mg/kg): 1.24 µM·h | clearance ([4]; Balb/c, in vivo, iv, 2 mg/kg): 70.8 mL/min/kg | half-life ([4]; Balb/c, in vivo, iv, 2 mg/kg): 1.4 h | AUC(0-t) ([4]; Balb/c, in vivo, po, 10 mg/kg): 4.87 µM·h | Cmax ([4]; Balb/c, in vivo, po, 10 mg/kg): 0.653 µM | half-life ([4]; Balb/c, in vivo, po, 10 mg/kg): 5.6 h

Structure (SMILES): CP(C)(=O)c1ccc(Nc2ccc(C(F)(F)F)cc2)c(-c2cn3c(n2)CCC3)c1 [Example 21]
IC50 ([1]; 24 h): 7.46 nM

Structure (SMILES): Cn1cnc(-c2cc(P(C)(C)=O)cnc2Nc2ccc3c(c2)OC(F)(F)O3)c1 [Example 34]
IC50 [1, 7]: 191 nM | IC50 [2]: > 5000 nM | IC50 [3]: > 5000 nM

Structure (SMILES): CP(C)(=O)c1cnc(Nc2ccc(C(F)(F)F)cc2)c(-c2ccccn2)c1 [Example 33]
IC50 ([1]; 24 h): 19.8 nM

Now from value to compound:

IC50 [1, 7]: 11.8 nM | IC50 [2]: > 1250 nM | IC50 [3]: 958 nM
Structure (SMILES): Cn1ccc(-c2cc(P(C)(C)=O)cnc2Nc2ccc(C(F)(F)F)cc2)n1 [Example 17]

AUC(0-t) ([4]; plasma, mice, IV 2 mg/kg, read-out: AUClast): 50.8 µM·h | clearance ([4]; plasma, mice, IV 2 mg/kg, read-out: Cl (converted)): 0.4 mL/min/kg | half-life ([4]; plasma, mice, IV 2 mg/kg, read-out: T1/2 (converted)): 63.5 h | bioavailability ([4]; plasma, mice, PO 10 mg/kg vs IV 2 mg/kg, read-out: F%): 99% | AUC(0-t) ([4]; plasma, mice, PO 10 mg/kg, read-out: AUClast): 251 µM·h | Cmax ([4]; plasma, mice, PO 10 mg/kg, read-out: Cmax): 13.3 µM | half-life ([4]; plasma, mice, PO 10 mg/kg, read-out: T1/2 (converted)): 17 h | IC50 [1, 7]: 4.65 nM | AUC(0-t) [5]: 2160 µM·h | IC50 [2]: > 1250 nM | IC50 [3]: > 1250 nM | FaSSIF(pH = 6.5) [6]: 223.4 ug/mL
Structure (SMILES): Cc1cc(Oc2ccc(C(F)(F)F)cc2)c2ccc(P(C)(C)=O)cc2c1 [Example 29]

IC50 [2]: > 20000 nM | IC50 [3]: > 5000 nM
Structure (SMILES): CP(C)(=O)c1ccc2c(Oc3ccc(OC(F)(F)F)cc3)cccc2c1 [Example 27]

IC50 [2]: > 20000 nM | IC50 [3]: > 20000 nM
Structure (SMILES): CCc1ccc(Oc2cccc3cc(P(C)(C)=O)ccc23)cc1 [Example 25]

FaSSIF(pH = 6.5) [6]: 36.2 ug/mL
Structure (SMILES): CNS(=O)(=O)c1cnc(Oc2ccc(C(F)(F)F)cc2)c(-c2cn3c(n2)CCC3)c1 [Comparative compound B4, reference compound]
